According to the CheMixHub viscosity set:

Test: xn = mol fraction of the nth substance listed

COCCOCCOCCOCCOC + CC1COC(=O)O1
298.15 K, 101.33 kPa
Conditions | viscosity [mPa·s]
x1 = 0.0021 | 2.505
x1 = 0.0047 | 2.51
x1 = 0.0111 | 2.543
x1 = 0.0248 | 2.604
x1 = 0.0362 | 2.663
x1 = 0.0516 | 2.716
x1 = 0.0765 | 2.814
x1 = 0.1064 | 2.935
x1 = 0.1537 | 3.083
x1 = 0.1752 | 3.145
x1 = 0.2194 | 3.268
x1 = 0.259 | 3.355
x1 = 0.3006 | 3.428
x1 = 0.3585 | 3.506
x1 = 0.3967 | 3.56
x1 = 0.4451 | 3.59
x1 = 0.4956 | 3.602
x1 = 0.5433 | 3.607
x1 = 0.6081 | 3.609
x1 = 0.6396 | 3.615
x1 = 0.7173 | 3.588
x1 = 0.782 | 3.559
x1 = 0.8311 | 3.541
x1 = 0.896 | 3.498
x1 = 0.9403 | 3.466

C=CC(=O)OCC + CC#N
viscosity [mPa·s], 100 kPa
Conditions | 293.15 K | 298.15 K | 303.15 K | 308.15 K | 313.15 K | 318.15 K
x2 = 0.0611 | 0.5524 | 0.5177 | 0.4854 | 0.4506 | 0.4107 | 0.3704
x2 = 0.1197 | 0.5374 | 0.5035 | 0.472 | 0.4383 | 0.3998 | 0.3611
x2 = 0.1852 | 0.5211 | 0.4883 | 0.4578 | 0.4254 | 0.3886 | 0.3517
x2 = 0.2385 | 0.5081 | 0.4762 | 0.4467 | 0.4154 | 0.3801 | 0.3447
x2 = 0.2966 | 0.4944 | 0.4633 | 0.4348 | 0.4048 | 0.3711 | 0.3374
x2 = 0.3675 | 0.4781 | 0.4483 | 0.421 | 0.3926 | 0.3609 | 0.3293
x2 = 0.436 | 0.4629 | 0.4343 | 0.4082 | 0.3812 | 0.3515 | 0.3219
x2 = 0.4982 | 0.4496 | 0.4221 | 0.3971 | 0.3714 | 0.3435 | 0.3157
x2 = 0.5745 | 0.4339 | 0.4078 | 0.3841 | 0.3601 | 0.3343 | 0.3087
x2 = 0.6519 | 0.4188 | 0.394 | 0.3717 | 0.3493 | 0.3257 | 0.3024
x2 = 0.725 | 0.4054 | 0.3819 | 0.3608 | 0.34 | 0.3185 | 0.2973
x2 = 0.8185 | 0.3896 | 0.3678 | 0.3484 | 0.3296 | 0.3108 | 0.2924
x2 = 0.9145 | 0.3751 | 0.3552 | 0.3378 | 0.3213 | 0.3054 | 0.2901

CCCCn1cc[n+](C)c1.F[P-](F)(F)(F)(F)F + CC#N
298.15 K, 101 kPa
Conditions | viscosity [mPa·s]
x2 = 0.1938 | 92.9
x2 = 0.5896 | 8.84

Clc1ccccc1 + CC#N
viscosity [mPa·s], 101 kPa
Conditions | 298.15 K | 303.15 K | 308.15 K
x1 = 0.1038 | – | – | 0.352
x1 = 0.2009 | – | – | 0.3871
x1 = 0.3059 | – | – | 0.4245
x1 = 0.3949 | – | – | 0.4591
x1 = 0.4943 | – | – | 0.4944
x1 = 0.5946 | – | – | 0.5309
x1 = 0.6984 | – | – | 0.5671
x1 = 0.7956 | – | – | 0.6032
x1 = 0.8961 | – | – | 0.6352
x2 = 0.082 | 0.728 | 0.65 | –
x2 = 0.1809 | 0.681 | 0.609 | –
x2 = 0.267 | 0.642 | 0.577 | –
x2 = 0.3853 | 0.587 | 0.529 | –
x2 = 0.506 | 0.539 | 0.484 | –
x2 = 0.5957 | 0.501 | 0.459 | –
x2 = 0.6925 | 0.46 | 0.418 | –
x2 = 0.8175 | 0.406 | 0.373 | –
x2 = 0.9171 | 0.367 | 0.337 | –

CCOP(=O)(OCC)OCC + CC(=O)N(C)C
298.15 K, 101.3 kPa
Conditions | viscosity [mPa·s]
x1 = 0.1085 | 0.997
x1 = 0.2118 | 1.066
x1 = 0.3173 | 1.133
x1 = 0.4275 | 1.199
x1 = 0.5277 | 1.257
x1 = 0.5946 | 1.294
x1 = 0.7173 | 1.36
x1 = 0.8144 | 1.41
x1 = 0.8998 | 1.456

N#CCCCCC#N + CC(=O)N(C)C
303.15 K, 101.33 kPa
Conditions | viscosity [mPa·s]
x1 = 0.0999 | 0.9801
x1 = 0.2976 | 1.363
x1 = 0.3998 | 1.666
x1 = 0.4988 | 2.029
x1 = 0.5898 | 2.42
x1 = 0.699 | 2.965
x1 = 0.8491 | 3.85

CCCCn1cc[n+](C)c1.F[P-](F)(F)(F)(F)F + CC(C)=O
Conditions | viscosity [mPa·s]
298.15 K, 101 kPa, x2 = 0.1935 | 88.9

COC(C)(C)C + CC(C)CC(C)(C)C
Conditions | viscosity [mPa·s]
298.15 K, 101.33 kPa, x1 = 0.125 | 0.4633
298.15 K, 101.33 kPa, x1 = 0.2442 | 0.4465
298.15 K, 101.33 kPa, x1 = 0.3612 | 0.4301
298.15 K, 101.33 kPa, x1 = 0.462 | 0.4159
298.15 K, 101.33 kPa, x1 = 0.5638 | 0.4012
298.15 K, 101.33 kPa, x1 = 0.6579 | 0.3878
298.15 K, 101.33 kPa, x1 = 0.7533 | 0.3739
298.15 K, 101.33 kPa, x1 = 0.8375 | 0.3611
298.15 K, 101.33 kPa, x1 = 0.9182 | 0.3483
303.15 K, 101 kPa, x1 = 0.1862 | 0.436
303.15 K, 101 kPa, x1 = 0.3104 | 0.423
303.15 K, 101 kPa, x1 = 0.3813 | 0.416
303.15 K, 101 kPa, x1 = 0.4961 | 0.404
303.15 K, 101 kPa, x1 = 0.6203 | 0.39
303.15 K, 101 kPa, x1 = 0.6609 | 0.386
303.15 K, 101 kPa, x1 = 0.8925 | 0.36

Clc1ccccc1 + CC(C)CO
viscosity [mPa·s], 101.33 kPa
Conditions | x1 = 0.101 | x1 = 0.2015 | x1 = 0.2966 | x1 = 0.4019 | x1 = 0.4952 | x1 = 0.5979 | x1 = 0.6965 | x1 = 0.8009 | x1 = 0.8977
298.15 K | 2.558 | 1.975 | 1.593 | 1.301 | 1.124 | 0.9772 | 0.8803 | 0.8094 | 0.7666
313.15 K | 1.663 | 1.336 | 1.128 | 0.9531 | 0.8497 | 0.7614 | 0.7035 | 0.6586 | 0.633

COC(C)(C)C + CC(C)O
101 kPa
Conditions | viscosity [mPa·s]
293.15 K, x1 = 0.0305 | 2.145
298.15 K, x1 = 0.0702 | 1.595
303.15 K, x1 = 0.0702 | 1.395
308.15 K, x1 = 0.0914 | 1.145

COCCOCCOCCOCCOC + CC(C)O
viscosity [mPa·s], 101 kPa
Conditions | x1 = 0.0021 | x1 = 0.0042 | x1 = 0.00994 | x1 = 0.014 | x1 = 0.0152 | x1 = 0.025 | x1 = 0.0355 | x1 = 0.0719 | x1 = 0.0734 | x1 = 0.0994
298.15 K | 2.074 | 2.059 | 2.022 | 1.999 | 1.996 | 1.934 | 1.941 | 1.86 | 1.883 | 1.83
308.15 K | 1.555 | 1.549 | 1.53 | 1.52 | 1.52 | 1.512 | 1.484 | 1.465 | 1.489 | 1.444
318.15 K | 1.188 | 1.185 | 1.179 | 1.177 | 1.18 | 1.18 | 1.172 | 1.163 | 1.167 | 1.159
